Key:
[1] = tested on: Adipogenic progenitor cells; experiment: 2D adipogenic differentiation with DMAD components removed or at changed concentration; assay type: cell-based, bovine; conditions: for effect of removing the component from DMAD on percentage of positive cells and total lipid area: single component removed from DMAD
Method: (§1) At 90% confluence, proliferated MSCs were trypsinized and seeded in a 96-well collagen coated cell culture plate at 30,000 cells/cm^2 in SF-PM. After 24 hours, adipogenesis was induced by changing SF-PM to DMAD (the serum-free differentiation medium as depicted in Example 1), which was maintained on the cells for a period of 12 days with media changes every 3-4 days. As a control differentiation medium (ctrl), DMEM/F12 with 3% FBS was supplemented with 4 conventional adipogenic inducers (IBMX (Sigma Aldrich-15879; 0.5 mM), dexamethasone (Sigma Aldrich-D4902; 10 μM), rosiglitazone (Sigma Aldrich-R2408; 5 μM) and insulin (Peprotech-10-365; 10 μM)). All 4 inducers were used for the first 3 days of culture and only insulin and rosiglitazone were used for the remaining 9 days.
(§2) Cells were fixed on days 6 and 12 with 4% PFA for 20 minutes at room temperature and washed twice with PBS. Cells were then stained with Hoechst (ThermoFisher 493/503, 1:2000) and BODIPY (Sigma Aldrich 345880, 1:1000) in PBS for 30 minutes. Adipogenic differentiation was quantified using the ImageXPress Pico High Content Analyser (HCA; Molecular devices). The parameters measured were total area of lipid, lipid droplet average area and percentage of positive cells. For the percentage of positive cells, the HCA software assigned BODIPY immunoreactivity to the nearest nuclei, (i.e. a positive cell) and the number of BODIPY positive nuclei was then divided by the total number of nuclei.
Adipogenic progenitor cells were cultured as described in Example 2, with the exception that single components (FGF, EGF, insulin, vitamin C, hydrocortisone, BMP4, lipid concentrate, HEPES, putrescine, progesterone) of the DMAD medium (the serum-free differentiation medium as depicted in Example 1) were removed. In addition, different concentrations (50% and 200%) were tested for EGF, FGF, vitamin C, hydrocortisone and progesterone.

[2] = tested on: MSC cells; experiment: PPARγ agonist testing in 2D adipogenic differentiation; assay type: cell-based, bovine; conditions: 12 days, indomethacin 50 μM, others 10 μM
Method: as §1, §2
MSC cells were cultured as described in Example 2. With the exception that indomethacin (50 μM; 17378 from Sigma Aldrich) was replaced with one of the following three PPARΥ agonists to test their efficiency: magnolol (M3445 from Sigma Aldrich) at 10 μM; honokiol (H4914 from Sigma Aldrich) at 10 μM and amorfrutin B (SMB00532 from Sigma Aldrich) at 10 μM.

## O=S(=O)(O)CCN1CCN(CCO)CC1 [HEPES, 4-(2-hydroxyethyl)-1-piperazineethanesulfonic acid]
[1]
  effect of removing the component from DMAD on percentage of positive cells and total lipid area: did not have significant effects

## COc1cc(CCc2ccccc2)c(C(=O)O)c(O)c1C/C=C(\C)CCC=C(C)C [amorfrutin B]
[2]
  adipogenic differentiation in DMAD with this PPARγ agonist: able to undergo adipogenic differentiation

## C=CCc1ccc(O)c(-c2ccc(O)c(CC=C)c2)c1 [honokiol]
[2]
  adipogenic differentiation in DMAD with this PPARγ agonist: able to undergo adipogenic differentiation

## C[C@]12CCC(=O)C=C1CC[C@@H]1[C@@H]2[C@@H](O)C[C@@]2(C)[C@H]1CC[C@]2(O)C(=O)CO [hydrocortisone]
[1]
  effect of removing the component from DMAD on percentage of positive cells and total lipid area: significantly decreased differentiation

## COc1ccc2c(c1)c(CC(=O)O)c(C)n2C(=O)c1ccc(Cl)cc1 [indomethacin]
[2]
  adipogenic differentiation in DMAD with this PPARγ agonist: able to undergo adipogenic differentiation
  level of differentiation, ranking among the PPARγ agonists: highest level of differentiation

## C=CCc1ccc(O)c(-c2cc(CC=C)ccc2O)c1 [magnolol]
[2]
  adipogenic differentiation in DMAD with this PPARγ agonist: able to undergo adipogenic differentiation
  level of differentiation, ranking among the PPARγ agonists: highest level of differentiation

## CC(=O)[C@H]1CC[C@H]2[C@@H]3CCC4=CC(=O)CC[C@]4(C)[C@H]3CC[C@]12C [progesterone]
[1]
  effect of removing the component from DMAD on percentage of positive cells and total lipid area: did not have significant effects

## NCCCCN [putrescine, butane-1,4-diamine]
[1]
  effect of removing the component from DMAD on percentage of positive cells and total lipid area: did not have significant effects

## EGF: recombinant human EGF, AF-100-15 from Peprotech (NSDSECPLSHDGYCLHDGVCMYIEALDKYACNCVVGYIGERCQYRDLKWWELR; Epidermal growth factor; UniProt P01133 971-1023, looked up)
[1]; 50% of the standard concentration vs 100% control
  effect on adipogenesis (total lipid area) of decreasing the component's concentration in DMAD: significantly decreased adipogenesis
[1]
  effect of removing the component from DMAD on percentage of positive cells and total lipid area: significantly decreased differentiation

## FGF: recombinant human FGF2, 100-18B from Peprotech
[1]
  effect of removing the component from DMAD on percentage of positive cells and total lipid area: did not have significant effects

## insulin: recombinant human insulin, 10-365 from Peprotech
[1]
  effect of removing the component from DMAD on percentage of positive cells and total lipid area: significantly decreased differentiation

— patent US20240344028A1, “Serum-free media for producing adipocytes for animal consumption” (Mosa Meat B.V., priority 2021, published 2024)
